The values that follow come from ChEMBL document CHEMBL1201862, “PubChem BioAssay data set” (2004).

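Results reflect a 48-hour exposure of cells in 96-well plates to compound at five concentrations. The concentration for 50% growth inhibition is given as GI50.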 Calls of active or inactive are those of the source. Rule as the data show it: active = GI50 up to about 1.1 µM and inactive = higher.

Among the test systems are 786-0; A549; CCRF-CEM; HCT-116; HOP-92; M14; Malme-3M; NCI-H226; OVCAR-8; RPMI-8226; RXF 393; SF-295; SF-539; SK-OV-3; SNB-19; UACC-257.
Assay in all cases: growth of human tumour cells (NCI), 48 h

Take `CCC12C=C(C(=O)OC)N3c4ccccc4C4CCN(CCC1)C2C43` (configuration not stated): the GI50 in the experiment on 786-0 is 21.3 µM (inactive); with A549, > 100 µM (inactive); with CCRF-CEM, > 100 µM (inactive); in the experiment on HCT-116 it was 68.7 µM (inactive); in the experiment with HOP-92, 34.8 µM (inactive); with M14 it was 33.4 µM (inactive). For the same molecule, the GI50 with Malme-3M is 18.8 µM (inactive); in the experiment with NCI-H226 it was 25.3 µM (inactive); in the experiment with OVCAR-8, > 100 µM (inactive); with RPMI-8226, 50.6 µM (inactive); in the experiment with RXF 393 it was 53.2 µM (inactive); with SF-295, 98.2 µM (inactive). In addition, the GI50 in the experiment with SF-539 is > 100 µM (inactive); with SK-OV-3, > 100 µM (inactive); in the experiment on SNB-19 it was 72.4 µM (inactive); in the experiment with UACC-257, 34.2 µM (inactive).
Take `Cc1ccc(S(=O)(=O)N/N=C2\C(=O)C3CC2C(Cl)C3Cl)cc1` (configuration not stated): the GI50 with 786-0 is > 100 µM (inactive); in the experiment on A549 it was > 100 µM (inactive); in the experiment with CCRF-CEM it was > 100 µM (inactive); in the experiment with HCT-116 it was > 100 µM (inactive); with HOP-92, 70.8 µM (inactive); in the experiment on M14, > 100 µM (inactive). The GI50 in the experiment on Malme-3M, in the experiment on NCI-H226, in the experiment on OVCAR-8, in the experiment with RPMI-8226, in the experiment with SF-295 and with SK-OV-3 was > 100 µM (inactive) each time. In addition, the GI50 in the experiment on SNB-19 and in the experiment with UACC-257 was > 100 µM (inactive) throughout.
Take `C=C1CCC(OC(C)=O)C2(C)C(OC(C)=O)CC3OC3(C)C2C(OC(C)=O)C2C(C)C(=O)OC2C1Cl` (configuration not stated): the GI50 with 786-0, with A549, with CCRF-CEM, in the experiment with HCT-116, with HOP-92 and with M14 was > 100 µM (inactive) throughout. In addition, the GI50 in the experiment with Malme-3M, in the experiment on NCI-H226, in the experiment with OVCAR-8, in the experiment with RPMI-8226, with RXF 393 and with SF-295 was > 100 µM (inactive) each time. In addition, the GI50 in the experiment on SF-539, with SK-OV-3, in the experiment on SNB-19 and with UACC-257 was > 100 µM (inactive) throughout.
Regarding `COc1ccc2nc3cc(Cl)ccc3c(NC(C)CCCN(CCCl)CCCl)c2c1` (configuration not stated), the GI50 is 0.31 µM (active) with 786-0; 0.474 µM (active) with A549; 0.0612 µM (active) in the experiment with CCRF-CEM; 0.199 µM (active) with HCT-116; 0.569 µM (active) in the experiment on HOP-92; 0.809 µM (active) in the experiment on M14. Moreover, the GI50 in the experiment on Malme-3M was 1.85 µM (inactive); in the experiment on NCI-H226, 0.387 µM (active); in the experiment with OVCAR-8, 0.169 µM (active); with RPMI-8226 it was 0.293 µM (active); in the experiment with RXF 393, 1.04 µM (active); in the experiment with SF-295, 0.215 µM (active). The GI50 was 0.55 µM (active) in the experiment on SF-539, 0.83 µM (active) in the experiment with SK-OV-3, 0.74 µM (active) in the experiment with SNB-19 and 1.43 µM (inactive) in the experiment on UACC-257.
For `CCc1ccccc1N1C(=O)C(=O)C(c2nc3ccccc3s2)C(=O)C1=O`, the GI50 was > 100 µM (inactive) in the experiment with 786-0; > 100 µM (inactive) with A549; 37.6 µM (inactive) in the experiment with CCRF-CEM; 48.3 µM (inactive) in the experiment on HCT-116; > 100 µM (inactive) in the experiment on HOP-92; 59 µM (inactive) in the experiment with M14. In addition, the GI50 in the experiment on Malme-3M is > 100 µM (inactive); with NCI-H226, > 100 µM (inactive); with OVCAR-8, 41.8 µM (inactive); in the experiment with RPMI-8226, 72.4 µM (inactive); with RXF 393, > 100 µM (inactive); in the experiment with SF-295 it was 83 µM (inactive). The GI50 with SF-539, in the experiment with SK-OV-3, in the experiment on SNB-19 and with UACC-257 was > 100 µM (inactive) in each case.
With `O=C(CC1Sc2ccccc2NC1=O)Nc1ccc([N+](=O)[O-])cc1[N+](=O)[O-]` (configuration not stated), the GI50 is 17.9 µM (inactive) in the experiment on 786-0; 26.5 µM (inactive) in the experiment with A549; 15.6 µM (inactive) in the experiment on CCRF-CEM; 16 µM (inactive) in the experiment with HCT-116; 11 µM (inactive) in the experiment with HOP-92; 16 µM (inactive) in the experiment on M14. Further, the GI50 was 19.8 µM (inactive) in the experiment on Malme-3M; 11.9 µM (inactive) in the experiment on NCI-H226; 16.5 µM (inactive) with OVCAR-8; 11.3 µM (inactive) with RPMI-8226; 12.9 µM (inactive) in the experiment with RXF 393; 16.8 µM (inactive) in the experiment with SF-295. Further, the GI50 in the experiment on SNB-19 was 19.5 µM (inactive); with UACC-257, 19.9 µM (inactive).
For the molecule `Nc1cccc(C(=O)/C=C/c2ccccc2O)c1`, the GI50 with 786-0 is 33.1 µM (inactive); with A549, > 100 µM (inactive); with CCRF-CEM, 27.5 µM (inactive); with HCT-116 it was > 100 µM (inactive); in the experiment on HOP-92, > 100 µM (inactive); in the experiment on M14, > 100 µM (inactive). Further, the GI50 is > 100 µM (inactive) in the experiment on Malme-3M; > 100 µM (inactive) with NCI-H226; > 100 µM (inactive) in the experiment on OVCAR-8; 16.2 µM (inactive) in the experiment on RPMI-8226; 85.5 µM (inactive) with RXF 393; > 100 µM (inactive) with SF-295. Also, the GI50 in the experiment with SF-539, in the experiment on SK-OV-3, in the experiment on SNB-19 and in the experiment on UACC-257 was > 100 µM (inactive) in each case.
In the case of `C[n+]1c2ccccc2c(CNC(CS)C(=O)O)c2ccccc21` (configuration not stated), the GI50 with 786-0 is 31.8 µM (inactive); in the experiment with A549 it was 30.3 µM (inactive); with CCRF-CEM, 24.4 µM (inactive); in the experiment on HCT-116, 17.5 µM (inactive); in the experiment on HOP-92, 18.7 µM (inactive); in the experiment with M14 it was 38.9 µM (inactive). Also, the GI50 is 37.8 µM (inactive) with Malme-3M; 29.8 µM (inactive) in the experiment with NCI-H226; 25.4 µM (inactive) in the experiment with OVCAR-8; 16.9 µM (inactive) in the experiment with RPMI-8226; 24.1 µM (inactive) with RXF 393; 24.2 µM (inactive) in the experiment on SF-295. The GI50 in the experiment with SF-539 was 18.4 µM (inactive); in the experiment with SK-OV-3, 23.1 µM (inactive); with SNB-19, 32.7 µM (inactive); in the experiment on UACC-257, 38.5 µM (inactive).
With `C[C@]12CCC(=O)C(OC(=O)c3ccc([N+](=O)[O-])cc3)=C1CCC2=O`, the GI50 with 786-0, in the experiment with A549, with CCRF-CEM, in the experiment on HCT-116, in the experiment with HOP-92 and in the experiment on M14 was > 100 µM (inactive) each time. The GI50 was > 100 µM (inactive) with Malme-3M; 95.5 µM (inactive) in the experiment with NCI-H226; > 100 µM (inactive) in the experiment on OVCAR-8; > 100 µM (inactive) in the experiment on RPMI-8226; > 100 µM (inactive) in the experiment with RXF 393; > 100 µM (inactive) in the experiment on SF-295. The GI50 in the experiment on SF-539, in the experiment on SK-OV-3, with SNB-19 and with UACC-257 was > 100 µM (inactive) throughout.
As to `C#CC1(O)CCC2C3CCc4cc(Oc5nc(F)nc(-c6c7ccccc7c7n6CCS7)n5)ccc4C3CC[C@@]21C` (some centres not stated), the GI50 in the experiment on 786-0 is 34.1 µM (inactive); with A549 it was 33.6 µM (inactive); in the experiment on CCRF-CEM, 11 µM (inactive); with HCT-116, 12.1 µM (inactive); in the experiment on HOP-92, 23.8 µM (inactive); in the experiment on M14 it was 17.5 µM (inactive). Further, the GI50 is 38.5 µM (inactive) in the experiment with Malme-3M; 34 µM (inactive) with NCI-H226; 27.7 µM (inactive) in the experiment on OVCAR-8; 19.6 µM (inactive) in the experiment on RPMI-8226; 15.6 µM (inactive) with SF-295; 15.7 µM (inactive) in the experiment with SF-539. Besides, the GI50 with SNB-19 is 24.6 µM (inactive); in the experiment with UACC-257 it was 36.1 µM (inactive).
Consider `COC(=O)C1CC2CC(=NNC(N)=O)CC2C1` (configuration not stated), for which the GI50 in the experiment with 786-0, in the experiment with A549, in the experiment on CCRF-CEM, in the experiment on HCT-116, with HOP-92 and in the experiment with M14 was > 100 µM (inactive) each time. The GI50 in the experiment with Malme-3M, in the experiment with OVCAR-8, in the experiment on RPMI-8226, in the experiment on RXF 393, with SF-295 and with SF-539 was > 100 µM (inactive) throughout. In addition, the GI50 with SK-OV-3, in the experiment with SNB-19 and with UACC-257 was > 100 µM (inactive) each time.
As for `Cc1nc2ccccn2c1/N=N/c1ccc(C(=O)NN)cc1`, the GI50 is 53.8 µM (inactive) in the experiment on 786-0; 24.9 µM (inactive) with A549; 4.59 µM (inactive) in the experiment on CCRF-CEM; 46.5 µM (inactive) in the experiment on HOP-92; > 100 µM (inactive) in the experiment on M14; > 100 µM (inactive) in the experiment with Malme-3M. In addition, the GI50 with NCI-H226 was 25.5 µM (inactive); with OVCAR-8, 95.3 µM (inactive); with RPMI-8226 it was 28.4 µM (inactive); in the experiment on RXF 393 it was 9.82 µM (inactive); in the experiment on SF-295, 43.2 µM (inactive); in the experiment with SF-539, 77.3 µM (inactive). Further, the values for the GI50 in the experiment on SK-OV-3, in the experiment with SNB-19 and with UACC-257 were 48 µM (inactive), 49.5 µM (inactive) and 97.5 µM (inactive), respectively.
As for `CN(C)C(=N)c1ccccc1`, the GI50 in the experiment with 786-0, in the experiment on A549, in the experiment on HCT-116, in the experiment with HOP-92, in the experiment on M14 and with Malme-3M was > 100 µM (inactive) each time. The GI50 in the experiment with NCI-H226, in the experiment on OVCAR-8, with RXF 393, in the experiment on SF-295, in the experiment on SF-539 and in the experiment on SNB-19 was > 100 µM (inactive) each time. In addition, the GI50 in the experiment on UACC-257 is > 100 µM (inactive).
